Source: the C3SDB collision cross section collection
Where “and” joins values, the source holds several entries; their conditions need not be identical. Equal values may be shown once. Where a name gives a salt, the structure may show the parent alone.

Conditions: [M+H]+; instrument: TW; calibrated with polyalanine and drug standards

SMILES	collision cross section (N2)
CCN1C[C@]2(OC(=O)c3ccccc3NC(C)=O)CC[C@H](OC)C34C1C(C[C@@H]32)[C@@]1(O)C[C@H](OC)[C@H]2C[C@@H]4[C@]1(O)[C@H]2OC [LAPPACONITINE]	232.5 Å²
COc1ccc2c(=O)c(CC(=O)O)coc2c1 [ANHYDROBRAZILIC ACID]	143.1 Å²
COc1ccc(-c2oc3ccccc3c(=O)c2OC)cc1 [3,4'-DIMETHOXYFLAVONE]	159.1 Å²
COc1ccc(-c2cc(C(F)F)nn2-c2ccc(S(N)(=O)=O)cc2)cc1F [DERACOXIB]	189.9 Å²
CCN(CC)C(=O)c1ccc(O)c(OC)c1 [ETHAMIVAN]	149 Å²
COc1cc(-c2coc3cc(OCc4ccccc4)c(OC)c(O)c3c2=O)cc(O)c1OC [IRIGENIN, 7-BENZYL ETHER]	198.6 Å² and 212.4 Å²
CCCCC(=O)O[C@]1(C(=O)CO)CC[C@H]2[C@@H]3CCC4=CC(=O)CC[C@]4(C)[C@H]3[C@@H](O)C[C@@]21C [HYDROCORTISONE VALERATE]	212.5 Å²
COc1ccc(/C=C/c2cc(O)cc(O)c2)cc1 [RESVERATROL 4'-METHYL ETHER]	157.3 Å²
COc1cc(O)c(C(=O)/C=C/c2ccc(OC)c(O)c2)c(OC)c1 [2',3-DIHYDROXY-4,4',6'-TRIMETHOXYCHALCONE]	177.1 Å²
CCN(CC)C(=S)SSC(=S)N(CC)CC [DISULFIRAM]	165.5 Å²
COC(=O)NC(=S)Nc1ccccc1NC(=S)NC(=O)OC [DIMETHYL 4,4-o-PHENYLENE-BIS (3-THIOPHANATE)]	173.3 Å²
CCN1CCN(c2cc3c(cc2F)c(=O)c(C(=O)O)cn3C2CC2)CC1 [ENROFLOXACIN]	190.6 Å²
NC(=O)N1c2ccccc2C=Cc2ccccc21 [CARBAMAZEPINE]	149 Å²
CCC(C)C(=O)O[C@@H]1C[C@@]2(C)[C@H](c3ccoc3)OC(=O)CC23OC2(C)O[C@]14[C@]1(C)[C@@H](CC(=O)OC)C5(C)CC1(O)[C@](O)(C5OC(=O)C1(C)OC1C)[C@@H](OC(C)=O)[C@]34O2 (stereo partly specified) [UTILIN]	252.5 Å²
CC(=O)OCC(=O)[C@H]1CC[C@H]2[C@@H]3CCC4=CC(=O)CC[C@]4(C)[C@H]3CC[C@]12C [DESOXYCORTICOSTERONE ACETATE]	193.8 Å²
COCC1=C(C(=O)OC(C)OC(=O)OC(C)C)N2C(=O)[C@@H](NC(=O)/C(=N\OC)c3csc(N)n3)[C@H]2SC1 (stereo partly specified) [CEFPODOXIME PROXETIL]	235.4 Å² and 228.3 Å²
COC1=CC(=O)C[C@@H](C)[C@]12Oc1c(Cl)c(OC)cc(OC)c1C2=O [GRISEOFULVIN]	178.6 Å²
Oc1c(I)cc(I)c2cccnc12 [IODOQUINOL]	143.7 Å²
COc1ccc2c(c1)c(CC(=O)O)c(C)n2C(=O)c1ccc(Cl)cc1 [INDOMETHACIN]	179 Å²
C1CCc2nnnn2CC1 [PENTYLENETETRAZOL]	124.5 Å²
COc1ccc(-c2cc(=O)c3c(O)cc(OC)c(OC)c3o2)c(OC)c1 [5-HYDROXY-2',4',7,8-TETRAMETHOXYFLAVONE]	182 Å²
CN1CCc2cc3c(cc2[C@H]1[C@@H]1OC(=O)c2c1ccc1c2OCO1)OCO3 [BICUCULLINE (+)]	180 Å²

SMILES	collision cross section (N2)
C[C@]12CC[C@H]3[C@@H](CC[C@]4(O)C[C@@H](O)CC[C@]34C=O)[C@@]1(O)CC[C@@H]2C1=CC(=O)OC1 [STROPHANTHIDIN]	196.7 Å²
O=C(CCCl)NCc1ccccc1 [BECLAMIDE]	142.3 Å²
COc1cc2c(cc1OC)-c1c(oc3c4c(ccc3c1=O)OC(C(C)C)C4)CO2 (stereo unspecified) [DEHYDRODIHYDROROTENONE]	194.6 Å²
COc1cc2c(c(OC)c1OC)-c1ccc(OC)c(=O)cc1[C@@H](NC(C)=O)CC2 [COLCHICINE]	194.5 Å²
N[C@@H](CCC(=O)N[C@@H](CS)C(=O)NCC(=O)O)C(=O)O [GLUTATHIONE]	165.7 Å²
CN(C(=O)C(Cl)Cl)c1ccc(OC(=O)c2ccco2)cc1 [DILOXANIDE FUROATE]	171.7 Å²
S=c1ccss1 [3H-1,2-DITHIOLE-3-THIONE]	120.4 Å²
C[C@@](Cc1ccc(O)c(O)c1)(NN)C(=O)O [CARBIDOPA]	142.4 Å²
COc1cc(OC)cc(OC)c1 [1,3,5-TRIMETHOXYBENZENE]	130.6 Å²
COc1cc(OC)c2c(=O)c(-c3ccccc3)c(C)oc2c1OC [2-METHYL-5,7,8-TRIMETHOXYISOFLAVONE]	173.6 Å²
CC(=O)O[C@]1(C(C)=O)CC[C@H]2[C@@H]3C=C(Cl)C4=CC(=O)[C@@H]5C[C@@H]5[C@]4(C)[C@H]3CC[C@@]21C [CYPROTERONE ACETATE]	199.4 Å²
CCCc1cc(OC)c2c(c1)OCO2 [DIHYDROMYRISTICIN]	128.7 Å²
COc1ccc(/C=C/C(=O)c2cc(O)ccc2O)cc1 [2',5'-DIHYDROXY-4-METHOXYCHALCONE]	162.1 Å²
C[C@@H]1CC[C@@]2(NC1)O[C@H]1C[C@H]3[C@@H]4CC=C5C[C@@H](O)CC[C@]5(C)[C@H]4CC[C@]3(C)[C@H]1[C@@H]2C [SOLASODINE]	207.8 Å²
COC(=O)[C@H](Cc1ccccc1)NC(=O)[C@@H](N)CC(=O)O [ASPARTAME]	167.6 Å²
CC(=O)OCC(CCn1cnc2cnc(N)nc21)COC(C)=O [FAMCICLOVIR]	168.4 Å²
OCCN(CCO)c1nc(N2CCCCC2)c2nc(N(CCO)CCO)nc(N3CCCCC3)c2n1 [DIPYRIDAMOLE]	223.9 Å²
O=C1C=CC2=C3c4cc(O)c(O)cc4CC3(O)COC2=C1 (stereo unspecified) [BRAZILEIN]	159.9 Å²
OC[C@@H](O)[C@H]1O[C@@H]2O[C@H](C(Cl)(Cl)Cl)O[C@@H]2[C@H]1O [CHLORALOSE]	163.2 Å²
CC1=CC2C(C(C)C)CCC(C)(O)C2CC1 (stereo unspecified) [CADIN-4-EN-10-OL]	145.9 Å²
COc1cccc2c1C(=O)c1c(O)c3c(c(O)c1C2=O)C[C@@](O)(C(C)=O)C[C@@H]3O[C@H]1C[C@H](N)[C@H](O)[C@H](C)O1 [DAUNORUBICIN]	222.9 Å²
CN1C2C[C@H](OC(=O)[C@H](CO)c3ccccc3)C[C@H]1[C@@H](O)C2 [ANISODAMINE HYDROBROMIDE]	171.1 Å²

Further lines, results first:

collision cross section (N2)	SMILES
203.4 Å²	O=C1CC[C@]23/C=C/C(=O)NCCCCNCCCNC(=O)/C=C/c4ccc(c2c4)O[C@@H]3C1 [LUNARINE]
151.3 Å²	O=C(Oc1ccccc1C(=O)O)c1ccccc1O [SALSALATE]
194 Å²	CC(=O)OCC(=O)[C@@]1(O)CC[C@H]2[C@@H]3CCC4=CC(=O)C=C[C@]4(C)[C@H]3[C@@H](O)C[C@@]21C [PREDNISOLONE ACETATE]
148.3 Å²	CC1(C)C=Cc2cc3ccc(=O)oc3cc2O1 [XANTHYLETIN]
146.9 Å²	CC(=O)NS(=O)(=O)c1ccc(N)cc1 [SULFACETAMIDE]
197.2 Å²	CC(=O)O[C@]1(C(C)=O)CC[C@H]2[C@@H]3C[C@H](C)C4=CC(=O)CC[C@]4(C)[C@H]3CC[C@@]21C [MEDROXYPROGESTERONE ACETATE]
138.5 Å²	CC1=CC2C(CC1=O)C(C)=CCC2C(C)C (stereo unspecified) [MUUROLLADIE-3-ONE]
149.4 Å²	CC(C)NCC(O)c1ccc(O)c(O)c1 (stereo unspecified) [ISOPROTERENOL]
183.2 Å²	CC(=O)[C@H]1CC[C@H]2[C@@H]3C[C@H](C)C4=CC(=O)CC[C@]4(C)[C@H]3[C@@H](O)C[C@]12C [MEDRYSONE]
141.3 Å²	CCCc1cc(C(N)=S)ccn1 [PROTIONAMIDE]
248.8 Å²	CCC(C)n1ncn(-c2ccc(N3CCN(c4ccc(OCC5COC(Cn6cncn6)(c6ccc(Cl)cc6Cl)O5)cc4)CC3)cc2)c1=O (stereo unspecified) [ITRACONAZOLE]
181.8 Å²	C[C@]12C=CC(=O)C=C1CC[C@@H]1[C@@H]2C(=O)C[C@@]2(C)[C@H]1CC[C@]2(O)C(=O)CO [PREDNISONE]
178.6 Å²	C#C[C@]1(O)CC[C@H]2[C@@H]3CCC4=CC(=O)CC[C@@H]4[C@H]3CC[C@@]21CC [NORGESTREL]
134.7 Å²	CCCc1cc(=O)[nH]c(=S)[nH]1 [PROPYLTHIOURACIL]
117.2 Å² and 117.1 Å²	Cn1cc[nH]c1=S [METHIMAZOLE]
174.7 Å²	NC(N)=NC(=O)c1nc(Cl)c(N2CCCCCC2)nc1N [N,N-HEXAMETHYLENEAMILORIDE]
267.8 Å²	CO[C@H]1/C=C/O[C@@]2(C)Oc3c(C)c(O)c4c(O)c(c5c(nc6cc(C)ccn65)c4c3C2=O)NC(=O)/C(C)=C\C=C\[C@H](C)[C@H](O)[C@@H](C)[C@@H](O)[C@@H](C)[C@H](OC(C)=O)[C@@H]1C [RIFAXIMIN]
219.1 Å²	OC1(c2ccc(Cl)c(C(F)(F)F)c2)CCN(CCCC(c2ccc(F)cc2)c2ccc(F)cc2)CC1 [PENFLURIDOL]
171.2 Å²	CCN(CC)CCNC(=O)COc1ccc(OC)cc1 [MEFEXAMIDE]
218.5 Å²	CC(=O)NCCc1ccc(O)c(-c2c(O)c(O)c3c(c2O)C(=O)c2c(cc(O)c(C(=O)O)c2C(=O)O)C3=O)c1 [LACCAIC ACID A]
146.9 Å²	CCC1(c2ccccc2)C(=O)NCNC1=O [PRIMIDONE]

Same assay, conditions: [M+Na]+; instrument: TW; calibrated with polyalanine and drug standards

collision cross section (N2) [Å²]	SMILES
198.4	CC[C@H](C)C(=O)O[C@H]1CCC=C2C=C[C@H](C)[C@H](CC[C@@H]3C[C@@H](O)CC(=O)O3)[C@H]21 [MEVASTATIN]
